Assay results as given in patent US12060588B2, “Methods of editing DNA methylation” (Whitehead Institute for Biomedical Research, priority 2016, dated 2024).

Legend:
[1] = system: BDNF promoter IV / BDNF expression; experiment: BDNF expression in mouse cortical neurons (RT-qPCR); assay type: cell-based
Description: (§1) FIGS. 3A-3E depict targeted demethylation of BDNF promoter IV by dCas9-Tet1 to activate BDNF in neurons. FIG. 3A provides a schematic representation of targeting BDNF promoter IV by dCas9-Tet1 (dC-T) with specific gRNAs to erase methylation and activate BDNF expression. […] Bars are mean t SD of three biological replicates. FIG. 3C provides representative confocal images for BDNF induction in FIG. 3B. Top panel: BDNF expression was induced by 50 mM KCl treatment for 6 hrs. […] Stained in red for MAP2 (top two panels) or Cherry (bottom two panels), green for BDNF, blue for DAPI and grey for dCas9. Scale bar: 50 um. FIG. 3D depicts bisulfite sequencing of neurons in FIG. 3C. […] Shown is the mean percentage±SD of two biological replicates.
FIGS. 11A-11L depict targeted demethylation of BDNF promoter IV by dCas9-Tet1 in neurons. […] PAM for each gRNA is highlighted by a red box. […] Note that cultured neurons were treated with AraC on DIV2 to halt cell division in glial cells and neural progenitors. […] FIG. 11C provides EDU labeling analysis for the mouse primary neurons over the course of KCl treatment for 24 hrs. Note that extremely few EDU positive cells were observed. Stained in red for EDU, green for MAP2 and DAPI for nuclei. Scale bar: 500 um. FIG. 11D Upper panel: provides quantification of neuronal density over the course of KCl treatment. The post-mitotic neuron density remains steadily around 4.5×10^4/cm2 over time. Bars represent mean±SD of three experimental replicates. Lower panel: provides quantification of the EDU positive cells over the course of KCl treatment. Less than 2% of the cells are EDU-positive over 24 hrs. Bars represent mean±SD of three experimental replicates. FIG. 11E provides confocal micrographs of BDNF induction by ectopic expression of dCas9-Tet1 and a set of 4 gRNAs targeting BDNF promoter IV. Stained in green for BDNF, magenta for MAP2, red for Cherry and blue for DAPI. Note that the lentiviral infection efficiency is close to 100% in these neurons. Scale bar: 50 um. […] Bars represent mean±SD of three experimental replicates. […] FIG. 11J depicts DIV3 mouse cortical neurons were treated with ABT (50 uM) for 6 hours and then treated with KCl (50 mM) for 6-hour before harvest for RT-qPCR analysis. Bars represent mean±SD of three experimental replicates. FIG. 11K depicts DIV3 mouse cortical neurons were treated with 2-Hydroxyglutarate (10 mM) for 2 hours and then treated with KCl (50 mM) for 6-hour before harvest for RT-qPCR analysis. Bars represent mean±SD of three experimental replicates. FIG. 11L depicts DIV3 mouse cortical neurons derived from wild-type or Tet1 knockout E17.5 embryos were subject to time course KCl treatment experiments (6, 9 and 12 h). Bars represent mean±SD of three experimental replicates.
DNA replication-independent active demethylation has been proposed to operate in post-mitotic neurons (Guo et al., 2011; Martinowich et al., 2003). To test whether active demethylation can be induced in post-mitotic neurons, we applied the dCas9-Tet1 system to study the regulation of the BDNF gene. BDNF expression can be induced by neuronal activity accompanied by demethylation of its promoter IV (Chen et al., 2003; Martinowich et al., 2003). We designed 4 gRNAs targeting 11 CpGs in BDNF promoter IV (FIG. 11A) to determine whether dCas9-Tet1 can activate BDNF by inducing demethylation of this promoter (FIG. 3A). Mouse cortical neurons were isolated from E17.5 embryos and cultured for two days in vitro (DIV2) following a well-established experimental procedure for producing primary neuronal culture (Ebert et al., 2013). […] Neurons at day 3 in culture (DIV3) were infected with lentiviral vectors expressing dCas9-Tet1 with or without the 4 gRNAs at almost 100% transduction efficiency (FIG. 11E). At 48-hour post infection some of the cultures were treated with KCl to induce neuronal activity. […] We performed bisulfite sequencing to examine the methylation state of BDNF promoter IV. […]

[2] = system: C3H10T1/2 mouse embryonic fibroblast cells; experiment: Fibroblast-to-myoblast conversion assay; assay type: cell-based; conditions: for fraction of mock C3H10T1/2 cells expressing MyoD: after 5-Aza treatment (1 uM, 24-hour)
Source text: FIGS. 4A-4H depict targeted demethylation of the MyoD distal enhancer by dCas9-Tet1 to facilitate conversion of fibroblasts to myoblasts. FIG. 4A provides a schematic representation of targeting the MyoD distal enhancer (DE) region in DMR-5 by dCas9-Tet1 (dC-T) with specific gRNAs. […] Cherry positive cells were FACS sorted for RT-qPCR analysis. Bars represent mean±SD of three experimental replicates. FIG. 4C bisulfite sequencing of cells in FIG. 4B. […] Shown is the mean percentage±SD of two biological replicates. […] C3H10T1/2 cells were plated as 1×10^4 cells per well in 6-well plate, and then infected with lentiviruses expressing dC-T and gRNAs targeting DMR-5, or a catalytic dead form of Tet1 (dC-dT) with target gRNAs. 24-hour post infection, cells were treated with vehicle control (HEPES buffer) or 5-Azacytidine (1 uM) for 24-hour, and then harvested after 14 days for immunofluorescence staining. Stained in green for MyoD, magenta for MHC and blue for DAPI. Scale bar: 200 um. FIG. 4F provides quantification of MyoD positive cell ratio 14-day post infection with lentiviruses expressing dC-T alone, dC-T with gRNAs targeting DMR-5, and dC-dT with the target gRNAs. […] FIG. 4H provides quantification of myotube density in MHC positive clusters with more than 2 or 5 nuclei at 14-days after infection. […] Data are quantified from 3-5 representative images for F-H. Bars represent mean±SD.
FIGS. 12A-12J depict targeted demethylation of the MyoD DMR-5 by dCas9-Tet1 and conversion of fibroblasts to myoblasts. […] PAM for each sgRNA is highlighted by a red box. FIG. 12B provides experimental scheme of the fibroblast-to-myoblast conversion assay. Briefly, C3H10T1/2 mouse embryonic fibroblast cells were plated as 1×10^4 cells per well in 6-well plate, and then infected with lentiviruses expressing dCas9-Tet1 and target gRNAs. 24-hour post infection, cells were optionally treated with 5-Azacytidine (1 uM) for 24-hour (labeled in red), and harvested for immunofluorescence staining at different time points (day-14, -16 and -25, labeled in dark blue) with medium change every other day. Scale bar: 100 um. […] Stained in green for MHC, red for MyoD and blue for DAPI. Scale bar: 200 um. FIG. 12D depicts a fraction of mock C3H10T1/2 cells expressing MyoD at different times after 5-Aza treatment. The fraction of cells expressing MyoD increases from around 6% at day 14 to around 13% at day 16 and reached around 20% at day 25. Bars represent mean±SD. FIG. 12E provides number of nuclei in MHC+ cell clusters (grouped as 1-2 and >2 nuclei per MHC+ cluster). […] Bars represent mean±SD. Data was quantified from 3-5 representative images for each group in FIG. 12D and FIG. 12E. […] Bars represent mean±SD of three experimental replicates. FIG. 12G provides representative images for C3H10T1/2 cells 16 days after infection with lentiviruses expressing dC-T and gRNAs targeting DMR-5 (MyoD distal enhancer) in a fibroblast-to-myoblast conversion assay as described in FIG. 12B. […] Stained in magenta for MHC, green for MyoD and blue for DAPI. Scale bar: 200 um. FIG. 12H depicts a fraction of MyoD positive cells 16 days after infection with lentiviruses expressing dC-T alone or with gRNAs targeting DMR-5. FIG. 12I show a number of nuclei in MHC+ cell clusters (grouped as 2-5, 6-10, 11-20 and >20 nuclei per MHC+ cluster) 16 days after infection. […] Data are quantified from 3-5 representative images for FIGS. 12H-12J. Bars represent mean±SD.
We then investigated whether targeted demethylation of DMR-5 would synergize with 5-Aza treatment to induce myotube formation (FIG. 12B). To follow the process of myotube formation after 5-Aza treatment, a time-course experiment was performed. Multi-nucleated myotube (MHC-positive) with heterogeneous sizes began to form 14 days post treatment, and both MyoD-positive cell ratio and myotube density and size then increased up to day-25 (FIGS. 12C-12E). […]

BDNF promoter IV [3] = experiment: Tet-assisted bisulfite sequencing (TAB-seq) of 5-hmC in BDNF promoter IV; assay type: cell-based, mouse; conditions: KCl treatment for 6 hours
Description: FIGS. 11A-11L depict targeted demethylation of BDNF promoter IV by dCas9-Tet1 in neurons. […] PAM for each gRNA is highlighted by a red box. […] Note that cultured neurons were treated with AraC on DIV2 to halt cell division in glial cells and neural progenitors. […] FIG. 11C provides EDU labeling analysis for the mouse primary neurons over the course of KCl treatment for 24 hrs. Note that extremely few EDU positive cells were observed. Stained in red for EDU, green for MAP2 and DAPI for nuclei. Scale bar: 500 um. FIG. 11D Upper panel: provides quantification of neuronal density over the course of KCl treatment. The post-mitotic neuron density remains steadily around 4.5×10^4/cm2 over time. Bars represent mean±SD of three experimental replicates. Lower panel: provides quantification of the EDU positive cells over the course of KCl treatment. Less than 2% of the cells are EDU-positive over 24 hrs. Bars represent mean±SD of three experimental replicates. FIG. 11E provides confocal micrographs of BDNF induction by ectopic expression of dCas9-Tet1 and a set of 4 gRNAs targeting BDNF promoter IV. Stained in green for BDNF, magenta for MAP2, red for Cherry and blue for DAPI. […]
Because post-mitotic neurons were used for these experiments, loss of methylation was likely due to active demethylation. […] Similarly, 5-hmC was also detected after KCl treatment (FIG. 11I). […]

BDNF promoter IV [4] = experiment: Bisulfite sequencing of BDNF promoter IV in mouse cortical neurons; assay type: cell-based; conditions: KCl 50 mM, 6 hours
Description: as §1
DNA replication-independent active demethylation has been proposed to operate in post-mitotic neurons (Guo et al., 2011; Martinowich et al., 2003). To test whether active demethylation can be induced in post-mitotic neurons, we applied the dCas9-Tet1 system to study the regulation of the BDNF gene. BDNF expression can be induced by neuronal activity accompanied by demethylation of its promoter IV (Chen et al., 2003; Martinowich et al., 2003). We designed 4 gRNAs targeting 11 CpGs in BDNF promoter IV (FIG. 11A) to determine whether dCas9-Tet1 can activate BDNF by inducing demethylation of this promoter (FIG. 3A). […]

Compound: C[C@]1(c2nc3c(C(N)=O)cccc3[nH]2)CCCN1 [ABT-888, reference compound]
- effect on activation of BDNF by KCl treatment ([1]; 50 uM for 6 hours, then KCl 50 mM for 6-hour): reduced the activation of BDNF by KCl treatment

Compound: O=C(O)CCC(O)C(=O)O (stereo not drawn) [2-hydroxygluterate, 2-Hydroxyglutarate, reference compound]
- effect on induction of BDNF expression by KCl treatment ([1]; 10 mM for 2 hours, then KCl 50 mM for 6-hour): completely abolished the induction of BDNF expression by KCl treatment

Compound: Nc1ncn([C@@H]2O[C@H](CO)[C@@H](O)[C@H]2O)c(=O)n1 [5-Aza, 5-Azacytidine]
- MHC+ myotube formation ([2]; 5-Aza (1 uM, 24-hour), 14 days after infection): induces MHC+ myotube formation
- fraction of mock C3H10T1/2 cells expressing MyoD ([2]; day 14): around 6%
- fraction of mock C3H10T1/2 cells expressing MyoD ([2]; day 16): around 13%
- fraction of mock C3H10T1/2 cells expressing MyoD ([2]; day 25): around 20%

Compound: [Cl-].[K+] [KCl, reference compound]
- 5-hmC level in BDNF promoter IV (BDNF promoter IV [3]): detected
- BDNF expression ([1]; KCl 50 mM treatment of DIV3 neurons): induced BDNF expression
- methylation of BDNF promoter IV CpGs (positions relative to transcription start site) (BDNF promoter IV [4]): induced demethylation of CpGs at positions of −148, −66 and 19
